One assay concerns the target human JAK2 (Homo sapiens (Human), UniProt O60674). Nature of the assay: In vitro JAK kinase assay (Example J), JAK2. It counts as biochemical. The note with it: ratio of IC50s, Assay J at 1 mM ATP.
Another assay deals with human JAK1 (Homo sapiens, UniProt P23458). In words: In vitro JAK kinase assay (Example J), JAK1. It counts as biochemical. The following applies: Assay J at 1 mM ATP.

Molecules are shown by their SMILES.

human JAK2, sequence (O60674 828-1132): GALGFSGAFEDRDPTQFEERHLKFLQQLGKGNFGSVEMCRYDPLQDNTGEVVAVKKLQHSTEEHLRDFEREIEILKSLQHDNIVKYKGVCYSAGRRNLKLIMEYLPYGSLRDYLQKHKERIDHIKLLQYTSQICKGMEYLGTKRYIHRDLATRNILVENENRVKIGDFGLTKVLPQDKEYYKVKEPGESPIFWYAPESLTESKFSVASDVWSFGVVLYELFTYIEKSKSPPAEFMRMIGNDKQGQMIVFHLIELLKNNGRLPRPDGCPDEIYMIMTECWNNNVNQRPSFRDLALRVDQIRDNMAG

Turning to `C[C@@H](O)c1nc2cnc3ccsc3c2n1[C@H]1CC[C@H](CC#N)OC1` [#1, ((2R,5S)-5-{2-[(1R)-1-Hydroxyethyl]-1H-imidazo[4,5-d]thieno[3,2-b]pyridin-1-yl}tetrahydro-2H-pyran-2-yl)acetonitrile], the JAK2/JAK1 at human JAK2 was over 10. For the compound `N#CCC(CN1CCN(C(=O)c2ccc(C#N)cc2F)CC1)n1ccc(-c2ncnc3[nH]ccc23)c1` (stereo not drawn) [Example 6, 4-[(4-{3-cyano-2-[3-(7H-pyrrolo[2,3-d]pyrimidin-4-yl)-1H-pyrrol-1-yl]propyl}piperazin-1-yl)carbonyl]-3-fluorobenzonitrile], the IC50 against human JAK1 was under 10 nM. Also, at human JAK2, the JAK2/JAK1 is reported as over 10.

Usually IC50 stands for the midpoint of a concentration-inhibition curve. A high value points to weaker potency in that assay.

Values taken from US10479803B2, “Bicyclic heteroarylaminoalkyl phenyl derivatives as PI3K inhibitors” (Incyte Corporation, priority 2014, dated 2019).
